Source: patent US20260200942A1, “PARP7 INHIBITORS AND THEIR APPLICATIONS” (CHONGQING PHARSCIN INNOBIO CO., LTD., priority 2023, published 2026)

What was measured:
[1] = molecular target: T1, PARP7 (Homo sapiens, UniProt Q7Z3E1); experiment: PARP7 inhibitory activity assay (histone-coated 384-well plate, chemiluminescence); assay type: biochemical
T1 construct: purchased BPS 80527
T1 sequence (Q7Z3E1 1-657): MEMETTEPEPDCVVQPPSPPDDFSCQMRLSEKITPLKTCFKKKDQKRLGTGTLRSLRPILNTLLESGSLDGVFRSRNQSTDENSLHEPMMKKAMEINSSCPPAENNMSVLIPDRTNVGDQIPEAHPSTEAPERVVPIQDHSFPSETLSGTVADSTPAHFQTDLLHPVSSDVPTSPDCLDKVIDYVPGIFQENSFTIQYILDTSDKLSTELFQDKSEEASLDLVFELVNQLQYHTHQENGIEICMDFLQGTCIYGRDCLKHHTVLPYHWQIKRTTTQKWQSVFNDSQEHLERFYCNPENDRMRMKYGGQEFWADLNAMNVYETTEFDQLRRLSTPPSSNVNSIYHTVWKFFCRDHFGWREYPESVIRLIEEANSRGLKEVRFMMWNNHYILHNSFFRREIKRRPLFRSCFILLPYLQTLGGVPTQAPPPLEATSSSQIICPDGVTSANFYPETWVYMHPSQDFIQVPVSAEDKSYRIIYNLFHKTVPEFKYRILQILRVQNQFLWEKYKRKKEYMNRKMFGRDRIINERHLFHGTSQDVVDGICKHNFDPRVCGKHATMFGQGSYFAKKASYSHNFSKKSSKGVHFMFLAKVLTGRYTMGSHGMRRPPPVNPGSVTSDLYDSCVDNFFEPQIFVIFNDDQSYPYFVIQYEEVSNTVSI
From the text: Inhibition rate (%) calculation formula: […]

[2] = Liver microsomal stability study, human; assay type: in vitro ADME; conditions: Human liver microsomes
Procedure: (§1) The above compounds were diluted to a 1.5 μM intermediate working solution with 0.1 M potassium phosphate buffer containing 0.75 mg/mL liver microsomes, and then 30 μL of the intermediate working solution was dispensed into reaction plates for different time points (0, 5, 15, 30, 45, 60 min). 150 μL of methanol solution containing internal standard was added to the 0 min plate wells. For the other time points (5, 15, 30, 45, 60 min), the sample plates were pre-incubated at 37° C. for 5 min, after which the reaction was initiated with 15 μL of 6 mM NADPH solution and timing was started. 15 μL of 6 mM NADPH solution was added to the 0 min samples to balance the system. At 5 min, 15 min, 30 min, 45 min, and 60 min, respectively, 150 μL of methanol solution containing internal standard was added to the reaction wells to terminate the reaction. After the reaction was complete, the plates were shaken on a shaker at 600 rpm for 10 min, then centrifuged at 4000 rpm for 15 min. 80 μL of supernatant from each well was transferred to a 96-well sample plate containing 150 μL of ultrapure water, mixed, and then analyzed by LC/MS to calculate T1/2.

[3] = Liver microsomal stability study, mouse; assay type: in vitro ADME; conditions: Mouse liver microsomes
Procedure: as §1

[4] = molecular target: T2, PARP2 (Homo sapiens, UniProt Q9UGN5); experiment: PARP2 inhibitory activity assay (BPS PARP2 Chemiluminescent Activity Assay Kit); assay type: biochemical
T2 construct: purchased BPS Bioscience
T2 sequence (Q9UGN5 whole entry): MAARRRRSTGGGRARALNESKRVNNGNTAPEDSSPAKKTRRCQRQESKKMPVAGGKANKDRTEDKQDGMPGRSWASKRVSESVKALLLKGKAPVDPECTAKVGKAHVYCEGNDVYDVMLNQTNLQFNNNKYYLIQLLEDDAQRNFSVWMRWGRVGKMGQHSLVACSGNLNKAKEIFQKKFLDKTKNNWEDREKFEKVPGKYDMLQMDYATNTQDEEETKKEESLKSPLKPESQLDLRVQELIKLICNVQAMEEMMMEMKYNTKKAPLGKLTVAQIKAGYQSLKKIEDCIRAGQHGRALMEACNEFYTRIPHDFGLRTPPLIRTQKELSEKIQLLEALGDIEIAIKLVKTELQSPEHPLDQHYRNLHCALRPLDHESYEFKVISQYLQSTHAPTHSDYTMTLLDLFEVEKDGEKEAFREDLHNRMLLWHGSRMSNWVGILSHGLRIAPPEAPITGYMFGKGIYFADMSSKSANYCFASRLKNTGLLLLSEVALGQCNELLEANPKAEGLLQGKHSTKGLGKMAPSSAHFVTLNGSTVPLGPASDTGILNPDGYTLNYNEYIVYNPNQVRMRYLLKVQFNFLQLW
From the text: The PARP2 enzyme activity assay method used in the present disclosure employs reagents from the PARP2 Chemiluminescent Activity Assay Kit from BPS Bioscience, USA. […] The test results are shown in Table 1. /” indicates not tested.

[5] = Liver microsomal stability study, rat; assay type: in vitro ADME; conditions: Rat liver microsomes
Procedure: as §1

[6] = Mouse pharmacokinetic study; assay type: in vivo; conditions: BALB/c mice; for AUC(0-t) / Cmax / Tmax / half-life: female, mouse, plasma
From the text: • (1) Study design: Female healthy Balb/c mice (specific pathogen-free (SPF) grade) were used as test animals, divided into 2 dose groups with 3 mice in each group, for single intravenous injection and single oral gavage administration, respectively. The vehicle formulations were […] (DMSO)+10% Solutol+85% Saline and 0.5% methylcellulose (MC), respectively. • (2) Plasma sample collection and processing: Blood was collected from the orbital venous plexus of the mice. After intravenous (IV) bolus administration, samples were collected at 0.083 h, 0.25 h, 0.5 h, 1 h, 2 h, 4 h, 8 h, and 24 h. After oral (PO) administration, samples were collected at 0.25 h, 0.5 h, 1 h, 2 h, 4 h, 6 h, 8 h, and 24 h. An appropriate volume of whole blood samples was collected with EDTA-K2 anticoagulation, placed on wet ice after collection, and plasma was separated by centrifugation within 30 min (centrifugation conditions: 4000 rpm, 10 minutes, 2-8° C.). The collected plasma samples were stored in a −70° C. freezer before analysis. After analysis, the remaining plasma samples continued to be stored in a −70° C. freezer. • (3) Analytical batch processing and pharmacokinetic parameter calculation: The concentration of the test substance in the plasma samples was determined. The accuracy of quality control samples was evaluated concurrently with the analysis of the samples, with the requirement that more than 66.7% of the quality control samples have an accuracy between 80-120%. Using the plasma concentration data at different time points, pharmacokinetic parameters such as C0 (IV), Area Under the Curve (AUC)(0-t), T1/2, Cmax, Tmax, and Mean Residence Time (MRT) were calculated using WinNonlin.

| IC50 [1] [nM] | half-life at 1 µM [2] [min] | half-life at 1 µM [3] [min] | IC50 [4] [nM] | half-life at 1 µM [5] [min] | F ([6]; PO, 10 mg/kg, 0.5% MC) [%] | AUC(0-t) ([6]; IV, 1 mg/kg) [ng·h/mL] | Cmax ([6]; IV, 1 mg/kg) [ng/mL] | Tmax ([6]; IV, 1 mg/kg) [min] | half-life ([6]; IV, 1 mg/kg) [min] | AUC(0-t) ([6]; PO, 10 mg/kg, 0.5% MC) [ng·h/mL] | Cmax ([6]; PO, 10 mg/kg, 0.5% MC) [ng/mL] | Tmax ([6]; PO, 10 mg/kg, 0.5% MC) [min] | half-life ([6]; PO, 10 mg/kg, 0.5% MC) [min] | SMILES |
| --- | --- | --- | --- | --- | --- | --- | --- | --- | --- | --- | --- | --- | --- | --- |
| < 10 | > 60 | > 60 | 100 to 1000 | > 60 |  |  |  |  |  |  |  |  |  | CC(=O)Nc1cc(C(F)(F)F)cnc1N1CCN(C(=O)[C@H]2C[C@H](NC(C)(C)c3cc(C(F)(F)F)c(=O)[nH]n3)C2)CC1 [Embodiment 61, N-(2-(4-((1R,3R)-3-((2-(6-oxo-5-(trifluoromethyl)-1,6-dihydropyridazin-3-yl)propan-2-yl)amino)cyclobutane-1-carbonyl)piperazin-1-yl)-5-(trifluoromethyl)pyridin-3-yl)acetamide] |
| < 10 | > 60 | > 60 | 100 to 1000 | > 60 |  |  |  |  |  |  |  |  |  | CC(=O)Nc1cc(C(F)(F)F)cnc1N1CCN(C(=O)[C@H]2C[C@H](NCc3cc(C(F)(F)F)c(=O)[nH]n3)C2)CC1 [Embodiment 63, N-(2-(4-((1R,3R)-3-(((6-oxo-5-(trifluoromethyl)-1,6-dihydropyridazin-3-yl)methyl)amino)cyclobutane-1-carbonyl)piperazin-1-yl)-5-(trifluoromethyl)pyridin-3-yl)acetamide] |
| 10 to 100 | > 60 | > 60 |  | > 60 | 59.45 | 1790 | 1200 | 4.8 | 53.4 | 10700 | 7060 | 15 | 48.6 | O=c1[nH]nc(CN[C@H]2C[C@H](C(=O)N3CCN(c4ncc(C(F)(F)F)cn4)CC3)C2)cc1C(F)(F)F [Embodiment 12] |
| 10 to 100 | > 60 | > 60 |  | > 60 | 66.00 | 7900 | 4210 | 4.8 | 76.8 | 52100 | 22000 | 19.8 | 58.8 | O=C(C1CN(Cc2cc(C(F)(F)F)c(=O)[nH]n2)C1)N1CCN(c2ncc(C(F)(F)F)cn2)CC1 [Embodiment 5, 4-(trifluoromethyl)-6-((3-(4-(5-(trifluoromethyl)pyrimidin-2-yl)piperazine-1-carbonyl)azetidin-1-yl)methyl)pyridazin-3(2H)-one] |
